# According to article PMC12040169 (PLOS Biology, 2025):
# Experiment: in vitro
# Details: human, hela cells
row,Compound,"viability at 28.5 h, 10 µM [%]"
1,CN(C)[C@@H]1C[C@H](C2(c3ccccc3)OCCO2)CC[C@H]1N(C)C(=O)Cc1ccc(Cl)c(Cl)c1 [CBK016338],87.8

# Same assay, conditions: human, hela cells, % viability
row,Compound,"viability at 28.5 h, 10 µM [%]"
1,COc1cc2cc(O)c(C)c(NCc3ccco3)c2cc1OC [CBK013723],84.4
2,CC1CC(NC(=S)NCc2csc3ccccc23)CC(C)(C)C1 (stereo not shown) [CBK013824],90.9
3,CCn1c(CN2CCN(Cc3ccc4c(c3)OCO4)CC2)n[nH]c1=S [CBK013828],105
4,CN(C)c1cccc(OCCn2ccnc(N3CCNCC3)c2=O)c1 [CBK013866F],114
5,S=c1[nH]nc(CN2CCSCC2)n1-c1ccc(Cl)cc1 [CBK013868],105
6,CC(C)(N)CN(Cc1ccccc1)C(=O)/C=C/c1ccccc1 [CBK013891T],90.8
7,Clc1ccc(OCCOc2nccnc2N2CCNCC2)cn1 [CBK014049G],92.5
8,CN(C)S(=O)(=O)N1CC2(CCN(C(=O)[C@@H]3CN(C(=O)C(C)(C)NC(=O)OC(C)(C)C)C[C@H]3c3cc4ccccc4o3)CC2)c2ccccc21 [CBK014088],89
9,Cc1c(Cl)cccc1S(=O)(=O)N1CCCN(c2nc3ccc(Cl)cc3s2)CC1 [CBK014131],95.6
10,O=S(=O)(Nc1nc(-c2sccc2Cl)cs1)c1cc(Cl)ccc1Cl [CBK014147],94.2
11,O=C(c1ccccc1)c1cccc(OCCOc2nccnc2N2CCNCC2)c1 [CBK014250G],96.1
12,FC(F)(F)Oc1cccc(OCCOc2nccnc2N2CCNCC2)c1 [CBK014323G],100
13,OCCOc1cccc(OCCOc2nccnc2N2CCNCC2)c1 [CBK014339G],112
14,CC1(C)Cc2c(oc(N)c2C#N)CO1 [CBK014395],101
15,S=c1[nH]nc(COc2ccccc2)n1C1CCCCC1 [CBK014411],96.2
16,COCCN(C(=O)CCC(=O)NCCc1ccccc1)C1CCN(C)CC1 [CBK014576],96.9
17,Cn1c(S)nnc1-c1ccccc1O [CBK014577],111
18,CC(C)(N)C(=O)N1CC(C(=O)NCCN(Cc2ccccc2)S(C)(=O)=O)C(c2ccccc2)C1 (stereo not shown) [CBK014706T],93.3
19,c1ccc2c(COc3nccnc3N3CCNCC3)ccnc2c1 [CBK014866],90.3
20,Oc1ccc(-c2n[nH]c(=S)n2-c2ccccc2)cc1 [CBK014887],113
21,c1cncc(CCOc2nccnc2N2CCNCC2)c1 [CBK014992],101
22,CC(=O)Nc1ccc(/N=C/c2ccc(Cl)cc2)cc1 [CBK015166],92.3
23,COc1ccc(CCNC(=S)NC2CC3CCC2C3)cc1OC (stereo not shown) [CBK015410],90.8
24,COc1cccc(CNC(C(=O)O)c2ccc3c(c2)OCO3)c1 (stereo not shown) [CBK015420D],89.1

row,Compound,"viability at 28.5 h, 10 µM [%]"
1,O=C(Nc1ccccn1)Nc1ccccn1 [CBK015518],95.5
2,CCCc1cc(C(N)=O)cc(CCC)c1OCC [CBK015537],98
3,CC(CN(C)C)C(=O)c1cn(C)c2ccccc12 (stereo not shown) [CBK015540],102
4,Cc1c(C(=O)O)[nH]c2c1C(=O)CCC2 [CBK015548],97.5
5,COc1ccc(C(=O)N(C)C)cc1OC [CBK015550],115
6,O=C(Nc1ccccc1)OC1CCCCC1 [CBK015569],116
7,Cc1cc2ccccc2c(=O)n1CCO [CBK015621],102
8,O=c1nc(O)c(I)cn1C1OC(CO)C(O)C1O (stereo not shown) [CBK015625],82.3
9,CN1CCCC1c1cccnc1 (stereo not shown) [CBK015659],94
10,COc1ccc(O[C@@H]2CCCC[C@@H]2N2CCCCC2)cc1 [CBK015661C],90.6
11,CC(C)NC(=O)c1ccc(Cl)cc1 [CBK015665],101
12,O=[N+]([O-])c1ccccc1S(=O)(=O)Nc1cc(C(F)(F)F)ccc1Cl [CBK015721],93.3
13,COc1ccc2c(c1)CCC(c1ccccc1)=C2c1ccc(OCC(O)CN)cc1 (stereo not shown) [CBK015723C],70.5
14,N#Cc1ccc(N)c2ccccc12 [CBK015754],90.6
15,O=C1NCCc2c1[nH]c1ccc(Cl)cc21 [CBK015755],38.9
16,CC(C)(C)O/N=C/c1cccnc1 [CBK015761C],109
17,O=C1NCCc2c1[nH]c1c(Cl)cccc21 [CBK015762],78.2
18,Cc1ccccc1Oc1ccccc1NC(=O)CN1CCCCC1 [CBK015781C],98.3
19,CN(C)/N=C\c1cccc(O)c1 [CBK015814],95.2
20,CC1CCCC(C)N1CC(=O)Nc1ccccc1Oc1ccccc1 (stereo not shown) [CBK015824C],119
21,CCOC(=O)c1c(-c2ccccc2)csc1NS(=O)(=O)c1ccc(C)cc1 [CBK015841],95.1
22,Cc1cnoc1-c1cc(Cl)cc(Cl)c1O [CBK015870],89.3
23,Cc1cc(OCCC#N)cc(C)c1Cl [CBK015872],98.2
24,CCN(CC)CCC(=O)c1ccc(Cl)cc1 [CBK015906C],101

row,Compound,"viability at 28.5 h, 10 µM [%]"
1,CO[C@]1(c2cccc(C)c2)CC[C@@H](N2CCCCC2)CC1 [CBK015909G],83
2,CNCCCC1(c2ccccc2)SC(C)(C)c2ccccc21 (stereo not shown) [CBK015933C],90.6
3,O=C(NCCc1ccccn1)c1ccc(Cl)cc1Cl [CBK015946],81.4
4,Fc1ccc(C2CCc3n[nH]cc3C2)cc1 (stereo not shown) [CBK015957C],92
5,C/C(=N/NC(=O)C(C)CN1CCOCC1)c1ccc(Cl)cc1 (stereo not shown) [CBK016045],81.4
6,COc1ccc2c(c1)CC1(CCC(NCCCC(=O)c3ccc(F)cc3)CC1)C2 (stereo not shown) [CBK016054C],87.1
7,CN(C)CCCn1nc2n(c1=O)-c1ccccc1SC(c1ccccc1)C2 (stereo not shown) [CBK016063],105
8,Cc1ccc(-c2ccn(C(C)C(=O)N(C)C)n2)cc1 (stereo not shown) [CBK016069],98.4
9,S=C(NCC1CCN(C(=S)Nc2cccc3ccccc23)CC1)Nc1cccc2ccccc12 [CBK016070],107
10,Cc1nnc2n1-c1ccc(Cl)cc1C(c1ccccc1)=NN2CCCC(=O)c1ccc(F)cc1 [CBK016076],86.6
11,Cc1cn(C(C)C(=O)N(C)C)nc1C1CCCCC1 (stereo not shown) [CBK016092],113
12,ON=C1CCC(c2ccccc2)CC1 (stereo not shown) [CBK016102],113
13,CCCN(C(C)C(=O)N(C)C)S(=O)(=O)c1ccc(Cl)cc1 (stereo not shown) [CBK016123],96.8
14,O=C(O)c1ccc(-n2cccc2)cc1 [CBK016141],110
15,CC(Oc1cccc2ccccc12)C(=S)N(C)c1ccccc1 (stereo not shown) [CBK016158],88.2
16,Cc1cc(Br)ccc1S(=O)(=O)N(C)c1ccc(N2CCNCC2)c2ccccc12 [CBK016170C],96
17,OCc1nc2cc3cn[nH]c3cc2[nH]1 [CBK016203],86.5
18,OC(CN[C@H]1CC[C@](O)(c2ccc(Cl)cc2)CC1)c1ccccc1 (stereo partly shown) [CBK016206],98.4
19,COc1ccc(C23CCCN(C)C2C[C@@H](O)CC3)cc1OC (stereo partly shown) [CBK016226C],94.1
20,CC(C)CCc1ccc(C#N)c(=O)[nH]1 [CBK016227],98.8
21,O=C(O)c1ccccc1C1SCCCS1 [CBK016303],91.4
22,S=c1[nH]nnn1-c1ccc(Cl)c(Cl)c1 [CBK016327],96.7
23,c1ccc2sc(SCCN3CCCCC3)nc2c1 [CBK016366],109
24,COc1cccc(-n2c(C)nnc2C2(OC(C)=O)CCN(CCc3ccccc3)CC2)c1 [CBK016371],108

row,Compound,"viability at 28.5 h, 10 µM [%]"
1,O=C(C[S+]([O-])c1nc2ccccc2[nH]1)N1CCOCC1 (stereo not shown) [CBK016397],98.1
2,O=C(O)COCc1nn(-c2ccc(Br)cc2)c2c1CCCC2 [CBK016404],98.6
3,CCCN1CCCC(c2cccc(O)c2)C1 (stereo not shown) [CBK016405B],92.6
4,Cc1cccc(C)c1NC(=S)N1CCC2(CC1)OCCO2 [CBK016408],117
5,COc1ccc2c3c(cc(Cl)cc13)CC(N)C2 (stereo not shown) [CBK016450C],84.2
6,Cc1nc(O)c2c3c(sc2n1)CCCC3 [CBK016462],83.1
7,CCc1c(CC)c(OC(=O)C(N)C(C)C)c2ccccc2c1OC (stereo not shown) [CBK016484C],93.4
8,CC(C)(C)C(=O)c1cnc2sc3ccccc3n12 [CBK016512],91.6
9,CCC1C(c2ccc(C)cc2)=CCC(C(=O)NCCCN(C)C)C1C (stereo not shown) [CBK016514],79.6
10,COC(=O)c1cc(NC(=O)OC(C)(C)C)ccc1O [CBK016529],86
11,CC(=O)c1c(CSc2ccccc2)nn2c1CCCC2 [CBK016543],78.9
12,O=[N+]([O-])c1ccc(N2CCCCC2)s1 [CBK016566],104
13,COc1ccc2[nH]cc(CCNC3CCc4cccc(OC)c4C3)c2c1 (stereo not shown) [CBK016569C],80.1
14,CCCN(CC1CC1)C1CCc2cccc(C(N)=O)c2C1 (stereo not shown) [CBK016579],114
15,CCC(C)(C)NC(=NC#N)Nc1cccnc1 [CBK016580],85.1
16,CC(=O)Oc1ccc2c(=O)cc(N(C)C)oc2c1C [CBK016581],60.5
17,S=C(NC1=NCCS1)Nc1ccccc1 [CBK016591],95.2
18,CC(C)c1noc(-c2ncn3c2c(=O)n(C(C)C)c2cc(F)ccc23)n1 [CBK016659],102
19,Cc1c(C)n(C)c2nc(N3CCCC3)nc(N3CCCC3)c12 [CBK016683C],90.1
20,CCC(c1c(O)c2ccccc2oc1=O)c1cccc2ccccc12 (stereo not shown) [CBK016684],102
21,O=c1[nH]c2cccc3c2n1C[C@H](NCCc1ccccc1)C3 [CBK016688C],105
22,O=c1oc2ccccc2c(O)c1Cc1c(O)c2ccccc2oc1=O [CBK016703G],74
23,CC(C)Nc1cccnc1N1CCN(C(=O)c2ccncc2)CC1 [CBK016714],79

# Same assay, conditions: human, hela cells, % viability, bulk resorufin, single well
row,Compound,"viability at 28.5 h, 10 µM [%]"
1,CCCC(=O)C1(c2ccccc2)CCN(C(=O)Nc2cccc(SC)c2)CC1 [CBK016441],94.6
